Here are results for two molecules from patent US5276177A, “Physiologically active substance” (Matsuno; Tetsuya, priority 1991, dated 1994).

Each structure is given as a SMILES string. Values after ≈ are worked out from the molar mass of the structure shown.

For series [1] the following is noted: Experientia 44, 230, (1988); cited from earlier work.
The next series relates to growing cells. Briefly: cell cycle analyzed with a flow cytometer. Type of series: cell-based. In general terms: In flow cytometry, cells or beads pass a laser one at a time.
Another series deals with cultured tumor cells. Briefly: antitumor activity against cultured tumor cells (summary statement). It is filed as cell-based. Here is the method: (§1) Growth inhibition to Hela S3 cells
(§2) 0.1 Milliliter of a test compound properly diluted with an MEM culture containing 10% fetal bovine serum and 2 mM of glutamine was placed in each of 96 wells of a microtiter plate. Then, trypsinized HeLa S3 cells (ATCC HTB22) were adjusted with the above culture to form a solution containing 3×10^4 cells/ml, and 0.05 ml of the solution was added to each well.
(§3) The above plate was cultured in a carbonic acid gas incubator at 37° C. for 72 hours, and then culture supernatants were removed. 0.1 Milliliter of a culture medium containing 0.02% Neutral Red was added to each well, and the plate was cultured in the carbonic acid gas incubator at 37° C. for 1 hour to stain the cells. After culture supernatants were removed, the remainders were once washed with a physiological saline solution. Then, the dyestuff was extracted with 0.001N hydrochloric acid/30% ethanol, and the absorbance at 550 nm was measured with a microplate reader. In comparison between the absorbance of untreated cells and the absorbance of cells treated with the known concentration of the test compound, the growth inhibition ratio of the cells was calculated on the basis of the following equation. [formula] A: Absorbance of cells treated with the compound B: Absorbance of a well containing no cells
(§4) C: Absorbance of untreated cells […]

Another series deals with HeLa S3 cells. The experiment in a line: Growth inhibition to Hela S3 cells (Neutral Red staining, 72 hours). It is filed as cell-based. The note with it: Homo sapiens, 37° C., MEM with 10% fetal bovine serum, 550 nm. Here is the method: as §1, §2, §3, §4
The next series is described as follows: Solubility. It is filed as physicochemical.

Consider `O=C(/C=C/c1ccc(O)c(O)c1)OCCc1ccccc1` [phenetyl cafeate], for which the antitumor activity entry in series [1] is recorded as “has antitumor activity”.

Turning to `CC(=CC(=O)O)CC[C@@]1(C)[C@H](CO)CC[C@@]2(C)C(C)=CCC[C@H]12` [novel physiologically active substance], the cell cycle effect result in the series with growing cells is “terminated the growing cells at S phase and destroyed them”. In addition, in the series with cultured tumor cells, the antitumor activity result is listed as “exhibits antitumor activity against cultured tumor cells”. Also, in the series on HeLa S3 cells, half-maximal inhibition (IC50) required 87 µg/mL (≈ 271 µM). Also, the Solubility entry in “Solubility” (in acidic water) is “Sparingly soluble in acidic water”; in the series “Solubility” (in methanol, ethyl acetate, chloroform and DMSO), “Soluble in methanol, ethyl acetate, chloroform and DMSO”.
